TGI and GI50 data for ten molecules are collected here from PubChem BioAssay (NCI).

As a reminder, the TGI is the concentration giving total growth inhibition. As a reminder, the GI50 is the concentration giving 50% growth inhibition.

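Each compound was tested at five concentrations against cells in 96-well plates for 48 hours. Here, GI50 denotes the concentration required for 50% inhibition of growth. TGI: concentration producing complete growth inhibition.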

Test systems include HL-60(TB) leukemia; M14 melanoma; MALME-3M melanoma; MDA-MB-435; NCI-H226 lung; NCI-H23 lung; OVCAR-3 ovarian; PC-3 prostate; SF-268 CNS; SK-MEL-28 melanoma; SK-MEL-5 melanoma; SNB-19 CNS; UACC-257 melanoma; UACC-62 melanoma; CAKI-1 renal; HS 578T breast.
Common to all, as to assay: DTP human tumour cell line panel, 48 h

For the molecule `CC(=O)OCc1cc(OC(C)=O)c2cc3c(OC(C)=O)cccc3c(OC(C)=O)c2c1`, the TGI in the assay on HL-60(TB) leukemia was 47.5 µM; with M14 melanoma it was 55.7 µM; in the assay with MALME-3M melanoma, 4.08 µM; in the assay with MDA-MB-435 it was 43.9 µM; in the assay with NCI-H226 lung it was 47.3 µM; in the assay with NCI-H23 lung, 56.8 µM. Further, the TGI turned out to be 33.6 µM in the assay on OVCAR-3 ovarian; 38.6 µM with PC-3 prostate; 58.1 µM in the assay on SF-268 CNS; 51.7 µM with SK-MEL-28 melanoma; 23.7 µM in the assay with SK-MEL-5 melanoma; 50.6 µM with SNB-19 CNS. The figures for the TGI with UACC-257 melanoma and in the assay with UACC-62 melanoma were 49.1 µM and 38.7 µM, respectively.
As for `COc1ccc(-c2c(C(C)=O)c(C)n(C3OC(COC(C)=O)C(OC(C)=O)C(OC(C)=O)C3OC(C)=O)c(=S)c2C#N)cc1` (stereo not given), the TGI in the assay on CAKI-1 renal, in the assay with HL-60(TB) leukemia, in the assay with M14 melanoma, with MALME-3M melanoma, in the assay with MDA-MB-435 and in the assay with NCI-H226 lung was > 100 µM each time. The total growth inhibition concentration (TGI) in the assay on NCI-H23 lung, in the assay on OVCAR-3 ovarian, in the assay with PC-3 prostate, with SF-268 CNS, with SK-MEL-28 melanoma and in the assay on SK-MEL-5 melanoma was > 100 µM each time. The TGI in the assay with SNB-19 CNS, in the assay with UACC-257 melanoma and in the assay with UACC-62 melanoma was > 100 µM throughout.
Turning to `Nc1ccc(N=Nc2ccc(-c3ccc(N=Nc4c(S(=O)(=O)O)cc5cc(S(=O)(=O)O)c(N=Nc6ccc([N+](=O)[O-])cc6)c(N)c5c4O)cc3)cc2)c2cc(S(=O)(=O)O)ccc12`, the TGI with CAKI-1 renal, with HL-60(TB) leukemia, in the assay with M14 melanoma, in the assay on MALME-3M melanoma, with NCI-H226 lung and in the assay with NCI-H23 lung was > 100 µM throughout. Also, the TGI in the assay on OVCAR-3 ovarian, in the assay with SF-268 CNS, with SK-MEL-28 melanoma, in the assay on SK-MEL-5 melanoma, with SNB-19 CNS and in the assay with UACC-257 melanoma was > 100 µM in each case. Further, the TGI in the assay with UACC-62 melanoma is > 100 µM.
Consider `Cn1c(=O)oc2cc(C(=O)CN3CCN(Cc4ccc5c(c4)OCO5)CC3)c(Cl)cc21`, for which the TGI in the assay with CAKI-1 renal, in the assay on HL-60(TB) leukemia, with HS 578T breast, in the assay with MALME-3M melanoma, in the assay with NCI-H23 lung and in the assay on PC-3 prostate was > 100 µM each time. For the same molecule, the TGI in the assay on SF-268 CNS, with SK-MEL-5 melanoma, in the assay with SNB-19 CNS and with UACC-62 melanoma was > 100 µM each time.
Take `COc1ccc(-c2cc(=O)c3cc4c(cc3[nH]2)OCO4)c(OC)c1`: the TGI in the assay with CAKI-1 renal was > 100 µM; in the assay on HL-60(TB) leukemia, 46.3 µM; with M14 melanoma, > 100 µM; with MALME-3M melanoma, 77.2 µM; in the assay on NCI-H226 lung, > 100 µM; with NCI-H23 lung, > 100 µM. Besides, the TGI in the assay with OVCAR-3 ovarian is > 100 µM; in the assay with SF-268 CNS, > 100 µM; in the assay with SK-MEL-28 melanoma, > 100 µM; in the assay with SK-MEL-5 melanoma it was 80.1 µM; in the assay on SNB-19 CNS, > 100 µM; in the assay on UACC-62 melanoma, > 100 µM. Also, the GI50 is 93.5 µM with NCI-H226 lung, > 100 µM in the assay on OVCAR-3 ovarian and 62.6 µM in the assay on SF-268 CNS.
For `O=C1CCN(CCC(F)(F)C(F)(F)C(F)(F)C(F)(F)F)C(=S)N1`, the TGI in the assay with HL-60(TB) leukemia, in the assay with M14 melanoma, with MALME-3M melanoma, with NCI-H226 lung, with NCI-H23 lung and in the assay with OVCAR-3 ovarian was > 100 µM throughout. Further, the TGI with SF-268 CNS, in the assay with SK-MEL-28 melanoma, in the assay on SK-MEL-5 melanoma, in the assay on SNB-19 CNS and with UACC-62 melanoma was > 100 µM throughout.
For `CC1=N/C(=C\c2ccc(N)cc2)C(=O)N1Nc1nnc(NN2C(=O)/C(=C/c3ccc(N)cc3)N=C2C)c2ccccc12`, the TGI is 56.1 µM in the assay on HL-60(TB) leukemia; > 100 µM with M14 melanoma; 56.5 µM in the assay on NCI-H226 lung; > 100 µM with NCI-H23 lung; > 100 µM with SF-268 CNS; > 100 µM with SK-MEL-28 melanoma. For the same molecule, the TGI in the assay with SK-MEL-5 melanoma, with SNB-19 CNS, in the assay on UACC-257 melanoma and in the assay with UACC-62 melanoma was > 100 µM throughout.
`Cc1ccc(NCCO)cc1`: the TGI in the assay on CAKI-1 renal, in the assay with HL-60(TB) leukemia, in the assay with M14 melanoma, in the assay on MALME-3M melanoma, in the assay on NCI-H226 lung and with NCI-H23 lung was > 100 µM throughout. The TGI in the assay on OVCAR-3 ovarian, in the assay on SF-268 CNS, with SK-MEL-28 melanoma, with SK-MEL-5 melanoma, in the assay with SNB-19 CNS and in the assay with UACC-257 melanoma was > 100 µM each time. Also, in the assay on UACC-62 melanoma, the TGI was > 100 µM.
Take `O=c1[nH]ncc2[nH]c(-c3ccccc3)cc12`: the TGI with CAKI-1 renal, with HL-60(TB) leukemia, with M14 melanoma, in the assay on MALME-3M melanoma, with MDA-MB-435 and in the assay on NCI-H226 lung was > 100 µM each time. Further, the TGI in the assay with NCI-H23 lung was > 100 µM; with OVCAR-3 ovarian, > 100 µM; in the assay on PC-3 prostate, 95.1 µM; with SF-268 CNS, > 100 µM; in the assay with SK-MEL-5 melanoma it was 60.5 µM; in the assay with SNB-19 CNS, > 100 µM. Moreover, the TGI with UACC-257 melanoma and in the assay with UACC-62 melanoma was > 100 µM throughout.
Regarding `CCC1CN2CCc3cc(OC)c(OC)cc3C2CC1CC1c2cc(OC)c(OC)cc2CCN1C(=O)C(Cc1c[nH]c2ccccc12)NC(=O)OC(C)(C)C` (stereo not given), the TGI in the assay with CAKI-1 renal stood at 16.7 µM; with HL-60(TB) leukemia, 3.8 µM; with M14 melanoma it was 3.29 µM; in the assay on MALME-3M melanoma, 3.22 µM; in the assay with MDA-MB-435, 3.4 µM; in the assay on NCI-H226 lung, 27.6 µM. Further, the TGI worked out at 16.6 µM in the assay on NCI-H23 lung; 6.74 µM in the assay on OVCAR-3 ovarian; 10.5 µM with PC-3 prostate; 15.9 µM with SF-268 CNS; 4.31 µM in the assay with SK-MEL-28 melanoma; 3.08 µM in the assay on SK-MEL-5 melanoma. Besides, the total growth inhibition concentration (TGI) came out at 17.6 µM with SNB-19 CNS, 8.53 µM in the assay on UACC-257 melanoma and 14 µM in the assay on UACC-62 melanoma.
